From patent US20260008770A1, “CBL-B INHIBITORS AND METHODS OF USES THEREOF” (Insilico Medicine IP Limited, priority 2022, published 2026)

Each compound was assayed against Cbl-b protein (CBL-B, GST-Tag) (Homo sapiens (Human), UniProt Q13191) (assay: HTRF based binding assay, affinity to Cbl-b protein). Settings: not given.
Sequence of Cbl-b protein (CBL-B, GST-Tag) (Q13191 whole entry): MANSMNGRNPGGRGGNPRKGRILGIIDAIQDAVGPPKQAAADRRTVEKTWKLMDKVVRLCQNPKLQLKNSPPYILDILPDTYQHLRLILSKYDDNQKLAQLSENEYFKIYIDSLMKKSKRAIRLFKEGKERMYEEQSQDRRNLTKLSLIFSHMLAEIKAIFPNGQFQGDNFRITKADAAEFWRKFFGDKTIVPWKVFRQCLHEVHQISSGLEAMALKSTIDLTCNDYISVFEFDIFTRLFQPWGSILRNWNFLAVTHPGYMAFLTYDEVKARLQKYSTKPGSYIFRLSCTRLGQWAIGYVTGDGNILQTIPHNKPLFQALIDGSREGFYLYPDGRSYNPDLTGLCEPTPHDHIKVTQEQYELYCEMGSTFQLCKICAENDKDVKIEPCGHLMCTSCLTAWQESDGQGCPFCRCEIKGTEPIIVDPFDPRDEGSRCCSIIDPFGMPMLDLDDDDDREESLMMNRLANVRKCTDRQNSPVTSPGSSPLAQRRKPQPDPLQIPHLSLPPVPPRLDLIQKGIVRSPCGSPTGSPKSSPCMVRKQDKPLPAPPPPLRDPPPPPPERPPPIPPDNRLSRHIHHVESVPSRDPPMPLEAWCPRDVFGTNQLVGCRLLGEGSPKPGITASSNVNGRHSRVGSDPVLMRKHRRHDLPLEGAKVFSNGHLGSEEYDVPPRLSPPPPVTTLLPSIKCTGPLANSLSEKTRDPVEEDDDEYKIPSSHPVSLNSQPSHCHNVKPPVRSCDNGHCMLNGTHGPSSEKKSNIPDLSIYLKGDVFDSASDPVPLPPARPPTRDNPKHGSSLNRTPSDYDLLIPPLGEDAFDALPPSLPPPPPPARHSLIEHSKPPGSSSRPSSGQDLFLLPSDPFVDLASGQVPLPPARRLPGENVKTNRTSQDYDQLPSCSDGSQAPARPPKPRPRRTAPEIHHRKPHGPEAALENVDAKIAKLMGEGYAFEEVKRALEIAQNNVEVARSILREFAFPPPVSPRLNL

First: CC1CC(c2cc(F)nc(-n3cnc4c(C(F)(F)F)cc(CN5CCC[C@H](C)C5)cc4c3=O)c2)(c2nncn2C)C1 (stereo partly drawn) [Example 44]
Second: Cc1cc(C2(c3nncn3C)CC(C)C2)cc(-n2cnc3c(C(F)(F)F)cc(CN4CCC[C@H](C)C4)cc3c2=O)n1 (stereo partly drawn) [Example 45]
The IC50 of the first is lower: 0.02 to 0.05 µM for the first, 0.05 to 0.5 µM for the second.

Compared with C#Cc1cc(-n2cc3c(C(F)(F)F)cc(CN4CCC[C@H](C)C4)cc3n2)cc(C2(c3nncn3C)CC(C)C2)c1 (stereo partly drawn) [Example 51], C#CCC1CC(c2cccc(-n3cc4c(C(F)(F)F)cc(CN5CCC[C@H](C)C5)cc4n3)c2)(c2nncn2C)C1 (stereo partly drawn) [Example 66] is lower in IC50: 0.05 to 0.5 µM for the first, 0.02 to 0.05 µM for the second.

First: Cn1cnnc1[C@]1(c2cccc(-n3cc4c(C(F)(F)F)cc(CN5CCOC6(CCC6)C5)cc4n3)c2)C[C@H](C)C1 [Example 40]
Second: COCC1CC(c2cccc(-n3cc4c(C(F)(F)F)cc(CN5CCC[C@H](C)C5)cc4n3)c2)(c2nncn2C)C1 (stereo partly drawn) [Example 33]
The IC50 of the first is higher: 0.05 to 0.5 µM for the first, 0.02 to 0.05 µM for the second. The second is the more potent here.

Compared with C[C@H]1CCCN(Cc2cc(C(F)(F)F)c3ncn(-c4cccc(C5(Cc6nncn6C)COC5)c4)c(=O)c3c2)C1 [Example 80, (S)-3-(3-(3-((4-methyl-4H-1,2,4-triazol-3-yl)methyl)oxetan-3-yl)phenyl)-6-((3-methylpiperidin-1-yl)methyl)-8-(trifluoromethyl)quinazolin-4(3H)-one], C[C@H]1CCCN(Cc2cc(C(F)(F)F)c3ncn(-c4cccc(C5(c6nncn6C)CC(=O)C5)c4)c(=O)c3c2)C1 [Example 67] is lower in IC50: 0.5 to 1 µM for the first, 0.05 to 0.5 µM for the second.

First: CC1CN(Cc2cc(C(F)(F)F)c3ncn(-c4cc([C@]5(c6nncn6C)C[C@@H](C)C5)ccn4)c(=O)c3c2)CCC1(F)F (stereo partly drawn) [Example 34]
Second: Cn1cnnc1[C@]1(c2ccnc(-n3ncc4c(C(F)(F)F)cc(CN5CCCC6(CC6)C5)cc4c3=O)c2)C[C@H](C)C1 [Example 37]
The IC50 of the first is lower: 0.02 to 0.05 µM for the first, 0.05 to 0.5 µM for the second.

CC1=CCCN(Cc2cc(C(F)(F)F)c3cnn(-c4cccc(C5(c6nncn6C)CC(C)C5)c4)c(=O)c3c2)C1 (stereo not drawn) [Example 21] and C[C@H]1CCCN(Cc2cc(C(F)(F)F)c3cnn(-c4cccc(C5(c6nncn6C)CC(F)(F)C5)c4)c(=O)c3c2)C1 [Example 83] fall in the same range of IC50: 0.05 to 0.5 µM for the first, 0.05 to 0.5 µM for the second.

Cn1cnnc1[C@]1(c2cc(OCF)nc(-n3cnc4ccc(CN5CCC[C@H](F)C5)cc4c3=O)c2)C[C@H](C)C1 [Example 98] and CC1CC(c2cccc(-n3[nH]c(=O)c4c(C(F)(F)F)cc(CN5CCC[C@H](C)C5)cc4c3=O)c2)(c2nncn2C)C1 (stereo partly drawn) [Example 81] fall in the same range of IC50: 0.05 to 0.5 µM for the first, 0.05 to 0.5 µM for the second.

Same assay, conditions: HTRF binding, CBL-B (GST-Tag), fluorescence labeled Cbl-b binding probe

Going from CC1CC(c2cccc(-c3nc4cc(CN5CCC[C@H](C)C5)cc(C(F)(F)F)c4s3)c2)(c2nncn2C)C1 (stereo partly drawn) [Example 4, (S)-2-(3-(3-methyl-1-(4-methyl-4H-1,2,4-triazol-3-yl)cyclobutyl)phenyl)-5-((3-methylpiperidin-1-yl)methyl)-7-(trifluoromethyl)benzo[d]thiazole] to CC1CC(c2cccc(-n3[nH]c4c(C(F)(F)F)cc(CN5CCC[C@H](C)C5)cc4c3=O)c2)(c2nncn2C)C1 (stereo partly drawn) [Example 73], the IC50 rises from less than 0.02 µM to greater than 1 µM. The first is the more potent here.

CC1CC(c2cncc(-n3ncc4c(C(F)(F)F)cc(CN5CCC[C@H](C)C5)cc4c3=O)c2)(c2nncn2C)C1 (stereo partly drawn) [Example 77] and CC1CC(c2cccc(-n3ccc4c(C(F)(F)F)cc(CN5CCC[C@H](C)C5)cc4c3=O)c2)(c2nncn2C)C1 (stereo partly drawn) [Example 23] cannot be ordered by IC50: less than 0.02 µM for the first, less than 0.02 µM for the second.

First: Cn1cnnc1C(F)C1(c2cccc(-n3cc4c(C(F)(F)F)cc(CN5CCC[C@H](C6CC6)C5)cc4n3)c2)COC1 (stereo partly drawn) [Example 50]
Second: C[C@H]1CCCN(Cc2cc(C(F)(F)F)c3cnn(-c4cccc([C@@H](c5nncn5C)C5CCC5)c4)c(=O)c3c2)C1 [Example 18]
The IC50 of the first is lower: less than 0.02 µM for the first, greater than 1 µM for the second. The first is the more potent here.

C[C@H]1CCCN(Cc2ccc3ncn(-c4cc([C@]5(c6nncn6C)C[C@@H](C)C5)cc(C5CC5)n4)c(=O)c3c2)C1 [Example 96] and CC1CC(c2cc(C3CC3)nc(-n3cnc4c(C(F)(F)F)cc(CN5CCC[C@H](C)C5)cc4c3=O)c2)(c2nncn2C)C1 (stereo partly drawn) [Example 47] cannot be ordered by IC50: less than 0.02 µM for the first, less than 0.02 µM for the second.

C[C@H]1CCCN(Cc2cc(C(=O)Nc3cccc([C@]4(c5nncn5C)C[C@H](C)C4)c3)c(F)c(C(F)(F)F)c2)C1 [Example 29] and C[C@H]1CCCN(Cc2cc(C(=O)Nc3cccc([C@]4(c5nncn5C)C[C@@H](C)C4)c3)c(F)c(C(F)(F)F)c2)C1 [Example 28] cannot be ordered by IC50: less than 0.02 µM for the first, less than 0.02 µM for the second.

First: CC1CC(c2cccc(-n3ncc4c(C(F)(F)F)cc(CN5CCC(F)(F)[C@@H](C)C5)cc4c3=O)c2)(c2nncn2C)C1 (stereo partly drawn) [Example 15]
Second: [2H]C([2H])(c1cc(C(F)(F)F)c2ncn(-c3cccc([C@]4(c5nncn5C)C[C@@H](C)C4)c3)c(=O)c2c1)N1CCC[C@H](C)C1 [Example 104]
The IC50 of the first is higher: greater than 1 µM for the first, less than 0.02 µM for the second.

C=C(F)c1cc([C@]2(c3nncn3C)C[C@@H](C)C2)cc(-n2cnc3c(C(F)(F)F)cc(CN4CCC[C@H](C)C4)cc3c2=O)n1 [Example 107] and C#CC1CC(c2ccnc(-n3cnc4c(C(F)(F)F)cc(CN5CCC[C@H](C)C5)cc4c3=O)c2)(c2nncn2C)C1 (stereo partly drawn) [Example 101] cannot be ordered by IC50: less than 0.02 µM for the first, less than 0.02 µM for the second.

Cn1cnnc1[C@]1(c2ccnc(-n3cnc4c(C(F)(F)F)cc(CN5CCC[C@H](CF)C5)cc4c3=O)c2)C[C@H](C)C1 [Example 105] and CC1CC(c2cccc(-n3cnc4c(C(F)(F)F)c(CN5CCC[C@H](C)C5)[nH]c4c3=O)c2)(c2nncn2C)C1 (stereo partly drawn) [Example 63] cannot be ordered by IC50: less than 0.02 µM for the first, less than 0.02 µM for the second.
